Measured values from patent US9410947B2, “Fluorescent dyes and related methods” (University of Washington through its Center for …, priority 2012, dated 2016).
Entries after “also recorded” stand apart in the source; their conditions may differ.

Tests used:
salmon sperm DNA = experiment: Photometric (colorimetric) titration of dye solutions with DNA, Scatchard / n-K fit; format: binding
Experimental: Dye/DNA binding was assessed. The binding constant and number of dye molecules bound per base pair were assessed by means of photometric titrations (Peacocke, A. R.; Skerrett, J. N. H., Trans. Faraday Soc. 1956, 52, 261, Angerer, L. M.; Moudrianakis, E. N., J. Mol. Bio. 1972, 63, 505-521) of dye solutions with commercially available salmon sperm DNA (Sigma Aldrich, MW 50 kD to 100 kD) in 10 mM TE buffer at pH 7.2. Experiments were run using a temperature-controlled Ocean Optics diode array spectrophotometer at 25.0° C., with 2.5 mL of dye solution at a concentration sufficient for an initial optical density near 0.75, adding 1.5 mM DNA solution in 30 μL aliquots.
This example describes affinity of DANPY-1 to DNA. […] These experiments were analyzed using the Scatchard equation (Scatchard, G., Ann. N.Y. Acad. Sci. 1949, 51, 662-672.) […]
A titration methodology was also used. Dyes were evaluated for their DNA-binding properties by means of colorimetric titrations in buffered aqueous solution (1×TE buffer titrated to pH 7.2 with HCl). […] After allowing the solution to mix for about one minute, the stirrer was stopped and a spectrum was recorded. If the initial absorbance of the dye was ≧1, the dye solution was diluted with the appropriate solvent (TE buffer, methanol, or butanol) until the initial absorbance was <1. […] The reduced absorbance change […]

Solubility in solvents = format: physicochemical
[1] = in chloroform, extrapolated to zero frequency; cited from earlier work
Prorocentrum minimum = experiment: Flow cytometric analysis of DNA staining in alga; format: cell-based; settings: 1% DMSO
Text: In another aspect, this example describes a set of experiments to investigate DANPY-1 dye for use in flow cytometric analysis of DNA. The alga Prorocentrum minimum was selected for these studies. Several controls were run to: (a) ensure that cell integrity was maintained, (b) assess the contribution of unbound DANPY-1 to fluorescent background signals and (c) determine a dye concentration and the intensity of the fluorescent signal when the target DNA is fully saturated with bound dye. The DANPY-1 concentrations that were tested in these preliminary experiments ranged from 7.1 μM to 228 μM. All of the flow cytometric work was performed on an Accuri C6 flow cytometer (BD Scientific, Ann Arbor, Mich.). The excitation wavelength for the FL1, FL2, and FL3 detectors (or channels) is 488 nm and the FL4 laser excites at a wavelength of 640 nm. The fluorescent wavelengths that each channel detects are as follows: FL1 530/30, FL2 585/40, FL3 670 LP and FL4 675/25. These experiments are summarized below (data not shown): […]

dsDNA = experiment: QCM-D binding study, dsDNA layer; design: species or system salmon; settings: pH 7.2 1×TE buffer, 298 K, 0.3 mL/min, rinse ten minutes
Text: (§1) In yet another aspect, the present disclosure includes methods for quantifying nucleic acid molecules in a sample. For example, the present disclosure can include a method of determining a quantity of a nucleic acid molecule in a sample using the Quartz Crystal Microbalance with Dissipation Monitoring (QCM-D) method. QCM-D can be used to determine the formation of films (e.g., nm in thickness). For example, films may be formed on a surface from proteins, polymers, surfactants and cells. QCM-D can detect films formed in liquid and may be used to determine binding kinetics of, for example, cationic dyes (e.g., ethidium bromide, DANPY-1 and/or DAST). For example, a Q-Sense instrument (e.g., a Q-Sense E4 instrument, Biolin Scientific AB, Stockholm) can be used for QCM-D using a dedicated set of QCM sensors (e.g., SiO2-coated). The procedures of cleaning, deposition, mass monitoring, and preparing nucleic acid for QCM-D are known. (R. J. Rawle, C. R. D. Selassie, M. S. Johal, Langmuir 2007, 23, 9563-9566). Data can be output as kinetics that can include structural changes and mass changes. The crystals can be, for example, coated with a polyethylene imine (PEI) layer to enable binding of anionic nucleic acids. The crystals can be, for example, coated with a polymer polystyrene sulfonate (PSS), that only undergoes loose electrostatic binding. […]

ssDNA = experiment: QCM-D binding study, ssDNA layer; design: species or system salmon; settings: pH 7.2 1×TE buffer, 298 K, 0.3 mL/min, rinse ten minutes
Text: as §1

[2] = QCM-D binding study, PSS control polymer; settings: pH 7.2 1×TE buffer, 298 K
Text: as §1

tRNA = experiment: QCM-D binding study, tRNA layer; settings: pH 7.2 1×TE buffer, 298 K, 0.3 mL/min, rinse ten minutes
Text: as §1

[3] = QCM-D binding study, bare SiO2 control; settings: pH 7.2 1×TE buffer, 298 K
Text: as §1

[4] = QCM-D binding study, PEI layer
Text: The three nucleic acids (e.g., single-stranded DNA (ssDNA), double-stranded DNA (dsDNA), and transfer RNA (tRNA)) used in this example are anionic. The crystals were coated with a polyethylene imine (PEI) layer to create a surface and enable binding of the nucleic acids. […] Polystyrene sulfonate (PSS) was used as a control polymer. As controls, PSS which can only undergo loose electrostatic binding, and bare SiO2 were used. Any materials used for coating were allowed to deposit until a stable mass was reached (e.g., for five minutes) followed by five minutes of rinsing with buffer between each layer; (1) PEI or PSS, (2) nucleic acid and (3) the dye. After deposition, the film was rinsed with buffer for ten minutes. If the adsorbed mass returned to near the form immediately prior to the addition of the dye, then remained stable, the binding was characterized as reversible. Binding was characterized as irreversible if the mass remained constant after rinsing or leveled off at a substantially higher value than before the dye was added.

## CCN(CCO)c1ccc(N=Nc2ccc([N+](=O)[O-])cc2)cc1 [DR1, Disperse Red 1]
Salmon sperm DNA; 1:1 TE buffer and ethanol
  change in the absorbance peak on titration with DNA: no substantial change in the absorbance peak
Solubility in solvents; water
  solubility in water: not sufficiently soluble
[1]
  static hyperpolarizability βzzz(0): 54±5 10^−30 esu

## CC(=O)[O-].CN(C)c1ccc2cc(-c3cc[n+](C)cc3)ccc2c1 [DANPY-1, dimethylaminonaphthylpyridinium]
Prorocentrum minimum; 7.1 μM dye, 10 minute exposure
  cell concentration: 1.02e5 cells/mL
  impact on cell integrity: no impact on cell integrity
Prorocentrum minimum; 7.1 μM dye, FL1 530/30, ex 488 nm
  mean fluorescent intensity FL-1 channel: 6032
Prorocentrum minimum; 7.1 μM dye, FL2 585/40, ex 488 nm
  mean fluorescent intensity FL-2 channel: 40801
Prorocentrum minimum; 57 μM dye, 10 minute exposure
  cell concentration: 9.5e4 cells/mL
  impact on cell integrity: no impact on cell integrity
Prorocentrum minimum; 57 μM dye, FL1 530/30, ex 488 nm
  mean FU intensity FL-1 channel: 17951 FU
Prorocentrum minimum; 57 μM dye, FL2 585/40, ex 488 nm
  mean FU intensity FL-2 channel: 167481 FU
Prorocentrum minimum; 228 μM dye, 10 min exposure
  cell concentration: 8.1e4 cells/mL
  impact on cell integrity: some impact on cell integrity
Prorocentrum minimum; 228 μM dye, FL1 530/30, ex 488 nm
  mean fluorescent intensity FL-1 channel: 26131
Prorocentrum minimum; 228 μM dye, FL2 585/40, ex 488 nm
  mean fluorescent intensity FL-2 channel: 412988
Solubility in solvents; TCE and cyclopentanone
  solubility in standard spin-coating solvents: poorly soluble
Solubility in solvents; butanol
  solubility in butanol: poorly soluble
Solubility in solvents; methanol, ethanol, and n-propanol
  solubility in lower alcohols: highly soluble

## trans-4-[4-(Dimethylamino)styryl]-1-methylpyridinium toluenesulfonate [DAST]
Salmon sperm DNA; TE buffer
  shift in absorbance maximum upon addition of DNA: exhibited a shift in absorbance maximum
dsDNA
  QCM-D binding to dsDNA: did not interact strongly and None
ssDNA
  QCM-D binding to ssDNA: interacted strongly; also recorded: Irreversible
[2]
  QCM-D binding to PSS: interacted strongly; also recorded: Partially
tRNA
  QCM-D binding to tRNA: did not interact strongly; also recorded: Reversible
[3]
  QCM-D binding to SiO2: Reversible
[4]
  QCM-D binding to PEI layer: did not bind
